# Source: patent publication US20190167647A1, “PHARMACEUTICAL COMPOSITION FOR STROKE TREATMENT BASED ON AMPK INHIBITION” (INDUSTRY ACADEMY COOPERATION FOUNDATION OF SEJONG UNIVERSITY, priority 2016, published 2019)
# Tests used:
# [1] = test system: cultured cerebral cortex neurons of a mouse; assay: Zinc ion permeable carrier test, ZinPyr-1; assay type: cell-based
# Procedure: ZinPyr-1 is a fluorescent dye which has a lower Kd value than that of FluoZin-3 and is used to measure a change in a zinc concentration even at a lower concentration. Whether the drug #28 of the present invention can act as an ion permeable carrier was under observation using ZinPyr-1. More particularly, the cultured cerebral cortex neurons of a mouse were treated with ZinPyr-1 then treated with the drug #28 (0.05 μM) and clioquinol (0.5 μM) in a typically used neuronal cell culture medium, so as to determine a change in zinc ion concentrations in the neurons. Also, a non-treatment group was used as a control group.
# Therefore, after adding a further 0.5 μM concentration of zinc to the cell culture medium, a change in zinc concentration in the cells was under observation.
# [2] = test system: cultured cerebral cortex neurons of a mouse; assay: Inhibition of a variety of neurotoxicity, LDH assay (quaternary screening); assay type: cell-based; settings: 20 μM, NMDA, FeCl2, H2O2, TPEN, staurosporine, etoposide toxicity
# Procedure: More particularly, the cultured cerebral cortex neurons of a mouse were treated with 50 μM NMDA, 50 μM FeCl2, 100 μM H2O2, 2 μM TPEN (N,N,N′,N′-tetrakis (2-pyridylmethyl) ethylenediamine, Sigma), 500 nM staurosporine (Abcam) and 10 μM etoposide (Sigma), respectively, to induce neurotoxicity, followed by treatment using the selected 7 compounds at a concentration of 20 μM in order to observe neuro-protective effects. A degree of apoptosis of these cells was quantified by LDH assay. The neurotoxicity models used above include, for example, excitotoxicity, oxidative damage and apoptosis that are considered as a cause mechanism of stroke, in particular, the excitotoxicity model was NMDA, the oxidative damage model was iron toxicity and H2O2 toxicity models, and the apoptosis model was TPEN, staurosporine and etoposide toxicity models. The TPEN is a zinc chelator which is well known to cause typical apoptosis in neuronal cells, staurosporine is an enzyme inhibitor (kinase inhibitor) which is also well known as one of typical apoptosis inductive materials, and etoposide is a drug known to cause apoptosis due to DNA damage.
# mouse cortical cultures [3] = assay: TPEN-induced neurotoxicity (LDH secretion); assay type: cell-based
# Source text: (§1) Generally, application of TPEN as a zinc chelator easily flowing into the cells causes a cell death in the form of typical apoptosis (EDTA is not introduced into the cells). When adding zinc to the above treatment, intracellular free zinc ions are retained thus to reduce neuronal death and further reduce caspase-3 protease activity in the apoptosis process. Under expectation such that: the drug #28 and clioquinol may not only serve as a chelator but also play a role of an ion permeable carrier; these drugs flow into cells as combined with zinc; thereafter, the zinc is removed from the drug because a concentration of free zinc in the cytoplasm is too low; therefore, the concentration of free zinc in the cytoplasm is increased thus to reduce neurotoxicity due to TPEN, caspase-3 activity and neurotoxicity (LDH secretion) were under observation after treatment using zinc, the drug #28 and clioquinol.
# [4] = Free zinc concentration by pZn meter (test tube); assay type: physicochemical; settings: 2.5 to 20 μM drug, ZnAF 2.5 μM
# Procedure: In order to measure free zinc concentration levels, the drug #28 of the present invention was used for treatment in different concentrations (2.5 to 20 μM) along with ZnAF (2.5 μM) as a zinc fluorescent material on a test tube. On the other hand, a control group uses clioquinol (1 to 5 μM) well known as a very stronger zinc chelator. A free zinc concentration was measured by a pZn meter (NeuroBioTex Inc.).
# mouse cortical cultures [5] = assay: TPEN-induced caspase-3 activity; assay type: cell-based
# Source text: as §1
# [6] = Calcium chelation with Fura-2 dye (test tube); assay type: physicochemical
# Procedure: (§2) In order to determine whether the above result is obtained by the chelation of Ca^2+ ions other than the drug #28, protective effects of the drug #28 (10 to 60 μM) after treatment using ionomycin, which is a calcium ion permeable carrier (‘calcium ionophore’) directly increasing the intracellular calcium concentration, were under observation. Further, using a Fura-2 dye that is combined with calcium to represent fluorescence, it was monitored whether the drug #28 is combined with calcium on a test tube and represents chelating effects.
# [7] = test system: cultured cerebral cortex neurons of a mouse; assay: Zinc neurotoxicity inhibition, LDH assay (tertiary screening); assay type: cell-based; settings: 300 μM zinc 10 min
# Procedure: Cerebral cortex neurons of a mouse used in the present invention were extracted from the mouse embryos brain and cultured, followed by further culturing the same using a Dulbecco's modified Eagle's medium (DMEM, Gibco, Grand Island, N.Y., US) containing 5% fetal bovine serum (FBS) and 5% horse serum (HS) under conditions of 95% humidity, 5% CO2 and 37° C. temperature. For activation and differentiation of the above cells, these cells were proliferated at a density of 2×10^4 cells in 24-well tissue culture plate. Further, prior to treatment using zinc and the compounds, the cells were incubated in MEM medium without FBS and HS.
# More particularly, the cultured cerebral cortex neurons of a mouse were briefly exposed to 300 μM zinc for 10 minutes, and then treated with the selected 40 drugs, respectively, in order to observe neuro-protective effects. A degree of neuronal death of these cells was quantified by LDH assay wherein effects of individual drugs were averaged to result in a numerical value, and separate experiments were performed on each of the selected drugs 4 times, respectively (FIG. 4).
# neuronal cells = assay: Ionomycin (calcium ionophore) neurotoxicity; assay type: cell-based; settings: 10 to 60 μM tested
# Procedure: as §2
# [8] = test system: cultured cerebral cortex neurons of a mouse; assay: Intracellular free zinc after zinc exposure, FluoZin-3 (confocal microscope, fluorometer); assay type: cell-based
# Procedure: In order to monitor whether an actual free zinc concentration in neuronal cells is increased or not, the cultured cerebral cortex neurons of a mouse were pre-treated with a FluoZin-3 staining material, exposed to high concentration zinc, and then, treated with 4C01 (20 μM), 4C07 (20 μM) and the drug #28 (20, 50 μM). Thereafter, images of these treated neurons were observed using a confocal laser fluorescence microscope, and a fluorescent size was quantitatively measured using a fluorescence photometer (fluorometer).
# [9] = test system: male Sprague-Dawley (SD) rats; assay: Acute toxicity test; assay type: in vivo; design: RBC: unit not given here; settings: 75 μg/kg intra-cerebroventricular
# Source text: This procedure was repeated 4 times.
# Further, the rat was sacrificed, and specific organs such as the liver, spleen and kidney were extracted, followed by measurement of weights thereof (FIG. 7).
smiles,measurement,setting,value
"O=C1N=C(Nc2cccc(O)c2)S/C1=C\c1c[nH]c2ccccc12 [compound 28, (Z)-5-((1H-indol-3-yl)methylene)-2-((3-hydroxyphenyl)amino)thiazol-4(5H)-one]","increase of zinc in neurons, general culture conditions","[1]; #28 0.05 μM, clioquinol 0.5 μM",not clearly demonstrated
same,"increase of zinc in neurons, zinc-supplemented medium",[1]; further 0.5 μM zinc added to the cell culture medium,significant increase in zinc
same,inhibitory effects on neurotoxicity,[2],inhibitory effects on any toxicity
same,neurotoxicity by TPEN,mouse cortical cultures [3],decrease neurotoxicity by TPEN
same,free zinc concentration,[4],reduced in a concentration-dependent manner
same,caspase-3 activity induced by TPEN,mouse cortical cultures [5],significantly reduce caspase-3 activity induced by TPEN
same,affinity to calcium ions versus zinc ions,[6],lower affinity to calcium ions than zinc ions
same,chelating effects for calcium,"[6]; Fura-2 dye, test tube",shows the chelating effects for calcium in a high concentration
same,inhibition of zinc toxicity,[7],significantly inhibit zinc toxicity
same,concentration exhibiting toxicity protective effects against ionomycin,neuronal cells,more than 40 μM
same,"increase in intracellular free zinc, fluorescence magnitude","[8]; 4C01, 4C07 20 μM, #28 20, 50 μM, fluorometer",inhibit an increase in intracellular free zinc to the similar level
same,increase in free zinc in the neurons,"[8]; high concentration zinc, 20, 50 μM, confocal microscope",significantly reduced
same,toxicity by blood indicators compared to control group,[9],noticeable toxicity was not observed
same,dead rats,[9]; 24 hours,dead rats were not found
same,ALT,"[9]; n = 4, blood",54.5 ± 8.2 U/L
same,AST,"[9]; n = 4, blood",142.3 ± 50.7 U/L
same,BUN,"[9]; n = 4, blood",17.6 ± 1.8 mg/dL
same,CREA,"[9]; n = 4, blood",0.5 ± 0.0 mg/dL
same,GLU,"[9]; n = 4, blood",174.6 ± 18.0 mg/dL
same,RBC,"[9]; n = 4, blood",7.4 ± 0.5 ×10^3
same,WBCB,"[9]; n = 4, blood",11.6 ± 1.9 ×10^3 cell/uL
